Experimental data published in US20130288897A1, “SYNERGISTIC PESTICIDAL COMPOSITIONS” (Dow AgroSciences LLC, priority 2012, published 2013).
“And” between values parts separate entries of the source, which are not always exact repeats. Equal entries are not always repeated.

Assays:
Format in all cases: in vivo
[1] = tested on: cotton aphid (CA) Aphis gossypii; assay: Cotton aphid track-sprayer test on cotton: Compound A with glufosinate (Liberty) and AMS, rates 0.4, 0.1 and 0.025 g/Ha (Example XVIII)
Method: (§1) Glyphosate resistant cotton plants (Gossypium hirsutum, cv ‘DP493’) were trimmed to 1 true leaf and infested with mixed stages of cotton aphid (CA) Aphis gossypii 24 hours prior to application. Mixed developmental stage CA were infested onto the upper surface of each treated leaf by transferring infested foliage from an insectary colony. Each plant was infested with approximately equal numbers of CA based on visual estimation of aphid density on the infested material. Infested plants were held in the growth chamber (L:D 16:8 and 25° C.). Glufosinate (Liberty®, Bayer CropScience, Monheim am Rhein, Germany) was mixed with water at a rate equivalent to 5 ml/L (0.4 qt/Ac). […] High rate Compound A concentrations were created by diluting Compound A technical material with acetone to achieve a 20 ppm solution. […] […] […] Nozzle height above the canopy was held constant at ca. 30 cm. Plants were evaluated after 3 days from the time of infestation by counting all live cotton aphids on each plant.

[2] = tested on: cotton aphid (CA) Aphis gossypii; assay: Cotton aphid track-sprayer test on cotton: Compound A or imidacloprid with glufosinate (Liberty) and AMS (Example XVII); conditions: for % control / % control Negatives to zero / Colby Predicted Values: Rep 1-6
Method: as §1, with “h” for “hours”, “10” for “20”
TABLE 6 contains the calculated Colby values for combinations of treatments as well as the outcome of statistical evaluations between predicted (Colby) and actual measured values. These T-test statistics were only calculated for the 0.2 and 0.05 g/Ha rates. […] These same trends were apparent when Compound A was applied with both glufosinate and AMS.

[3] = tested on: cotton aphid (CA) Aphis gossypii; assay: Cotton aphid track-sprayer test on cotton: Compound A or imidacloprid with Durango (glyphosate) or Durango Blank and AMS (Example XVI); conditions: for % Control (Negatives to zero) Ave / % control Ave / Colbv predicted values Ave: average of 5 reps
Method: as §1, with “24 h” for “24 hours”, “C.). Glyphosate (Durango®, Dow AgroSciences, LLC, Indianapolis, Ind.)” for “C.). Glufosinate (Liberty®, Bayer CropScience, Monheim am Rhein, Germany)”, “to 15” for “to 5”, “ml/L (1.2” for “ml/L (0.4”, “qt/Ac). […] A glyphosate free formulation of Durango® was prepared using these same mixing instructions.” for “qt/Ac).”, “a 10” for “a 20”
[…] Percent control for all treatments was calculated using the rep average for the untreated plants.

[4] = 0.025 g In./HA + Lib. 0.005 ml/ml
[5] = 0.025 g In./HA + Lib. 0.005 ml/ml + AMS 18 g/L
[6] = 0.1 g In./HA + Lib. 0.005 ml/ml
[7] = 0.1 g In./HA + Lib. 0.005 ml/ml + AMS 18 g/L
[8] = 0.4 g In./HA + Lib. 0.005 ml/ml
[9] = 0.4 g In./HA + Lib. 0.005 ml/ml + AMS 18 g/L
[10] = Rep 1-6, 0.1 g In./HA + Lib. 0.005 ml/ml
[11] = Rep 1-6, 0.1 g In./HA + Lib. 0.005 ml/ml + AMS 18 g/L
[12] = Rep 1-6, 0.4 g In./HA + Lib. 0.005 ml/ml
[13] = Rep 1-6, 0.4 g In./HA + Lib. 0.005 ml/ml + AMS 18 g/L
[14] = 0.0125 g In./Ha + glufosinate 0.005 ml/ml + AMS 18 mg/ml
[15] = 0.05 g In./Ha + glufosinate 0.005 ml/ml
[16] = 0.05 g In./Ha + glufosinate 0.005 ml/ml + AMS 18 mg/ml
[17] = 0.2 g In./Ha + glufosinate 0.005 ml/ml
[18] = 0.2 g In./Ha + glufosinate 0.005 ml/ml + AMS 18 mg/ml
[19] = 0.2 g In./Ha, no glufosinate, no AMS
[20] = 0.0125 g insecticide/Ha with Durango 0.015 ml/ml + AMS 18 g/L
[21] = 0.0125 g insecticide/Ha with Durango 0.015 ml/ml
[22] = 0.0125 g insecticide/Ha with Durango Blank 0.015 ml/ml + AMS 18 g/L
[23] = 0.0125 g insecticide/Ha with Durango Blank 0.015 ml/ml
[24] = 0.05 g insecticide/Ha with Durango 0.015 ml/ml + AMS 18 g/L, Rep 1-5
[25] = 0.05 g insecticide/Ha with Durango 0.015 ml/ml + AMS 18 g/L
[26] = 0.05 g insecticide/Ha with Durango 0.015 ml/ml
[27] = 0.05 g insecticide/Ha with Durango Blank 0.015 ml/ml + AMS 18 g/L
[28] = 0.05 g insecticide/Ha with Durango Blank 0.015 ml/ml
[29] = 0.2 g insecticide/Ha with Durango 0.015 ml/ml + AMS 18 g/L, Rep 1-5
[30] = 0.2 g insecticide/Ha with Durango 0.015 ml/ml + AMS 18 g/L
[31] = 0.2 g insecticide/Ha with Durango 0.015 ml/ml, Rep 1-5
[32] = 0.2 g insecticide/Ha with Durango 0.015 ml/ml
[33] = 0.2 g insecticide/Ha with Durango Blank 0.015 ml/ml + AMS 18 g/L, Rep 1-5
[34] = 0.2 g insecticide/Ha with Durango Blank 0.015 ml/ml + AMS 18 g/L
[35] = 0.2 g insecticide/Ha with Durango Blank 0.015 ml/ml

CC(c1ccc(C(F)(F)F)nc1)S(C)(=O)=NC#N (centres unmarked) [Compound A, [1-(6-Trifluoromethylpyridin-3-yl)ethyl](methyl)-oxido-λ^4-sulfanylidenecyanamide]
% Control (Negatives to zero) Ave [1, 4]: 54.2%
Colby Predicted Values Ave [1, 4]: 56.8
% Control (Negatives to zero) Ave [1, 5]: 85.6%
Colby Predicted Values Ave [1, 5]: 62.5
% Control (Negatives to zero) Ave [1, 6]: 76.7%
Colby Predicted Values Ave [1, 6]: 72.4
% Control (Negatives to zero) Ave [1, 7]: 89.7%
Colby Predicted Values Ave [1, 7]: 76.7
% Control (Negatives to zero) Ave ([1]; 0.1 g In./HA, no Lib., no AMS): 62.1%
% Control (Negatives to zero) Ave [1, 8]: 99.0%
Colby Predicted Values Ave [1, 8]: 98.2
% Control (Negatives to zero) Ave [1, 9]: 98.2%
Colby Predicted Values Ave [1, 9]: 98.4
% Control (Negatives to zero) Ave ([1]; 0.4 g In./HA, no Lib., no AMS): 97.3%
% Control (Negatives to zero) Ave ([1]; 0025 g In./HA, no Lib., no AMS): 39.5%
% control Negatives to zero ([1]; Rep 1-6, 0.025 g In./HA + Lib. 0.005 ml/ml + AMS 18 g/L): 70.0% and 95.4% and 97.0% and 89.1% and 65.9% and 96.2%
CA Counts ([1]; Rep 1-6, 0.025 g In./Ha, no Liberty, no AMS): 198 and 126 and 194 and 117 and 231 and 212
% control Negatives to zero [1, 10]: 58.2% and 79.2% and 98.0% and 58.5% and 82.6% and 84.0%
Colby Predicted Values [1, 10]: 74.4 and 70.0 and 71.8 and 78.3 and 93.2 and 46.6
% control Negatives to zero [1, 11]: 95.2% and 89.4% and 91.2% and 81.2% and 99.0% and 81.9%
Colby Predicted Values [1, 11]: 81.3 and 73.3 and 73.7 and 78.5 and 93.8 and 59.6
% control Negatives to zero ([1]; Rep 1-6, 0.1 g In./HA, no Lib., no AMS): 65.2% and 70.0% and 54.2% and 73.5% and 70.9% and 38.7%
% control Negatives to zero [1, 12]: 97.8% and 100.0% and 99.0% and 98.4% and 98.7%
Colby Predicted Values [1, 12]: 99.3 and 97.9 and 96.6 and 99.2 and 97.3
% control Negatives to zero [1, 13]: 98.2% and 100.0% and 98.3% and 92.7%
Colby Predicted Values [1, 13]: 99.0 and 99.4 and 98.1 and 96.6 and 99.3 and 97.9
% control Negatives to zero ([1]; Rep 1-6, 0.4 g In./HA, no Lib., no AMS): 98.2% and 99.3% and 96.6% and 95.8% and 96.7% and 96.9%
% control AVE ([2]; 0.0125 g In./Ha + glufosinate 0.005 ml/ml): 57.9%
% control AVE [2, 14]: 85.5%
Colby Predicted Values Ave ([2]; 0.0125 g In./Ha, combination with glufosinate): 48.7
Colby Predicted Values Ave ([2]; 0.0125 g In./Ha, combination with glufosinate and AMS): 56.8
% control AVE ([2]; 0.0125 g In./Ha, no glufosinate, no AMS): 22.9%
% control AVE [2, 15]: 82.1%
% control AVE [2, 16]: 91.8%
Colby Predicted Values Ave ([2]; 0.05 g In./Ha, combination with glufosinate): 63.4
Colby Predicted Values Ave ([2]; 0.05 g In./Ha, combination with glufosinate and AMS): 67.4
% control AVE ([2]; 0.05 g In./Ha, no glufosinate, no AMS): 60.2%
% control AVE [2, 17]: 95.3%
% control AVE [2, 18]: 96.6%
Colby Predicted Values Ave ([2]; 0.2 g In./Ha, combination with glufosinate): 85.7
Colby Predicted Values Ave ([2]; 0.2 g In./Ha, combination with glufosinate and AMS): 87.7
% control AVE [2, 19]: 87.0%
% control [2, 14]: 94.7% and 89.7% and 68.6% and 90.7% and 83.8% and 95.5%
% control Negatives to zero [2, 14]: 94.7% and 89.7% and 68.6% and 90.7% and 83.8% and 93.9%
% control [2, 15]: 81.3% and 80.2% and 72.9% and 99.2% and 77.0% and 89.4%
% control Negatives to zero [2, 15]: 81.3% and 80.2% and 72.9% and 99.2% and 77.0% and 89.4%
% control [2, 16]: 89.3% and 96.6% and 77.1% and 97.5% and 98.6% and 80.3%
% control Negatives to zero [2, 16]: 89.3% and 96.6% and 77.1% and 97.5% and 98.6% and 80.3%
% control [2, 17]: 97.3% and 95.7% and 93.2% and 94.6% and 86.4%
% control Negatives to zero [2, 17]: 97.3% and 95.7% and 93.2% and 94.6% and 86.4%
% control [2, 18]: 98.7% and 94.0% and 94.3% and 97.5% and 98.6% and 93.9%
% control Negatives to zero [2, 18]: 98.7% and 94.0% and 94.3% and 97.5% and 98.6% and 93.9%
Colby Predicted Values ([2]; 0.2 g In./Ha, first block of lines (combination with glufosinate)): 77.3 and 91.2 and 95.9 and 90.1 and 91.9 and 68.2
% control [2, 19]: 77.3% and 87.9% and 91.4% and 86.4% and 91.9% and 68.2%
Colby Predicted Values ([2]; 0.2 g In./Ha, second block of lines (combination with glufosinate and AMS)): 90.0 and 93.9 and 95.3 and 87.0 and 91.9 and 68.2
% Control (Negatives to zero) Ave [3, 20]: 23.8%
% control Ave [3, 20]: 11.7%
Colbv predicted values Ave [3, 20]: 48.0
% Control (Negatives to zero) Ave [3, 21]: 17.4%
% control Ave [3, 21]: 0.5%
Colbv predicted values Ave [3, 21]: 36.6
% Control (Negatives to zero) Ave [3, 22]: 26.5%
% control Ave [3, 22]: 25.1%
Colbv predicted values Ave [3, 22]: 56.2
% Control (Negatives to zero) Ave [3, 23]: 15.8%
% control Ave [3, 23]: −22.7%
Colbv predicted values Ave [3, 23]: 36.6
% control Ave ([3]; 0.0125 g insecticide/Ha, no herbicide, no AMS): 5.5%
% control [3, 24]: 68.6% and 52.3% and 68.2% and 65.8% and 35.3%
% control Negatives to zero [3, 24]: 68.6% and 52.3% and 68.2% and 65.8% and 35.3%
CA Counts [3, 24]: 37 and 49 and 36 and 25 and 48
% Control (Negatives to zero) Ave [3, 25]: 58.0%
% control Ave [3, 25]: 58.0%
Colbv predicted values Ave [3, 25]: 55.3
% Control (Negatives to zero) Ave [3, 26]: 14.2%
% control Ave [3, 26]: 9.1%
Colbv predicted values Ave [3, 26]: 45.2
% Control (Negatives to zero) Ave [3, 27]: 37.9%
% control Ave [3, 27]: 35.5%
Colbv predicted values Ave [3, 27]: 56.9
% Control (Negatives to zero) Ave [3, 28]: 36.1%
% control Ave [3, 28]: 36.1%
Colbv predicted values Ave [3, 28]: 43.6
% control Ave ([3]; 0.05 g insecticide/Ha, no herbicide, no AMS): 31.8%
% control [3, 29]: 97.5% and 100.0%
% control Negatives to zero [3, 29]: 97.5% and 100.0%
% Control (Negatives to zero) Ave [3, 30]: 99.5%
% control Ave [3, 30]: 99.5%
Colbv predicted values Ave [3, 30]: 72.8
% control [3, 31]: 89.8% and 96.1% and 76.1% and 91.8% and 96.0%
% control Negatives to zero [3, 31]: 89.8% and 96.1% and 76.1% and 91.8% and 96.0%
% Control (Negatives to zero) Ave [3, 32]: 90.0%
% control Ave [3, 32]: 90.0%
Colbv predicted values Ave [3, 32]: 70.5
% control [3, 33]: 66.9% and 97.1% and 76.1% and 79.5% and 74.4%
% control Negatives to zero [3, 33]: 68.9% and 97.1% and 76.1% and 79.5% and 74.4%
Colbv predicted values [3, 33]: 97.5 and 77.2 and 97.3 and 72.7 and 71.7
% Control (Negatives to zero) Ave [3, 34]: 78.8%
% control Ave [3, 34]: 78.8%
Colbv predicted values Ave [3, 34]: 83.3
% Control (Negatives to zero) Ave [3, 35]: 60.1%
% control Ave [3, 35]: 60.1%
Colbv predicted values Ave [3, 35]: 71.5
% control Ave ([3]; 0.2 g insecticide/Ha, no herbicide, no AMS): 50.2%
